Test system: 422866-222-R5-J1-PDC spheroid viability
Test: Anticancer human tumor 422866-222-R5-J1-PDC patient-derived pancreatic adenocarcinoma cell line growth inhibition [CLK]
Settings: spheroids with HUVEC and MSC; for IC50: curve of first compound; for viability, T/C: stronger effect = lower value
How it was run: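 Patient-derived tumor cells grown as complex spheroids with HUVEC endothelial cells and mesenchymal stem cells, treated with drug combinations. Concentrations descend in half-log steps from near clinical Cmax, or from 10 microM if Cmax unknown.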

[1] = second compound 0.0316 µM, first compound 0.0316 µM
[2] = second compound 0.0316 µM, first compound 0.1 µM
[3] = second compound 0.1 µM, first compound 0.0316 µM
[4] = second compound 0.1 µM, first compound 0.1 µM
[5] = second compound 0.316 µM, first compound 0.0316 µM
[6] = second compound 0.316 µM, first compound 0.1 µM
[7] = second compound 1 µM, first compound 0.0316 µM
[8] = second compound 1 µM, first compound 0.1 µM
[9] = second compound 3.16 µM, first compound 0.0316 µM
[10] = second compound 3.16 µM, first compound 0.1 µM
[11] = second compound 10 µM, first compound 0.0316 µM
[12] = second compound 10 µM, first compound 0.1 µM
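Further: spheroids exposed to agents for seven days before readout.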

`Cn1ncnc1[C@H]1c2n[nH]c(=O)c3cc(F)cc(c23)N[C@@H]1c1ccc(F)cc1` + CN1CCN(c2cc(C(=O)Nc3cc4cc(-c5cnn(C)c5)ccc4cn3)ccn2)CC1 gave an IC50 (second compound 0.0316 µM) of over 100 nM, an IC50 (second compound 0.1 µM) of over 100 nM and an IC50 (second compound 0.316 µM) of over 100 nM. The IC50 (second compound 1 µM) was under 0.316 nM, the IC50 (second compound 3.16 µM) was under 0.316 nM and the IC50 (second compound 10 µM) was under 0.316 nM. It also gave a viability, T/C (second compound 0.0316 µM, first compound 0.000316 µM) of 92.9%, a viability, T/C (second compound 0.0316 µM, first compound 0.001 µM) of 112% and a viability, T/C (second compound 0.0316 µM, first compound 0.00316 µM) of 106%. For the same compound, the viability, T/C (second compound 0.0316 µM, first compound 0.01 µM) was 102%, the viability, T/C [1] was 96% and the viability, T/C [2] was 87.3%. For the same compound, the viability, T/C (second compound 0.1 µM, first compound 0.000316 µM) was 126%, the viability, T/C (second compound 0.1 µM, first compound 0.001 µM) was 114% and the viability, T/C (second compound 0.1 µM, first compound 0.00316 µM) was 113%. For the same compound, the viability, T/C (second compound 0.1 µM, first compound 0.01 µM) was 97.2%, the viability, T/C [3] was 90% and the viability, T/C [4] was 80.1%. For the same compound, the viability, T/C (second compound 0.316 µM, first compound 0.000316 µM) was 99.3%, the viability, T/C (second compound 0.316 µM, first compound 0.001 µM) was 96.3% and the viability, T/C (second compound 0.316 µM, first compound 0.00316 µM) was 85.8%. For the same compound, the viability, T/C (second compound 0.316 µM, first compound 0.01 µM) was 75.8%, the viability, T/C [5] was 81.7% and the viability, T/C [6] was 71.9%. For the same compound, the viability, T/C (second compound 1 µM, first compound 0.000316 µM) was 24%, the viability, T/C (second compound 1 µM, first compound 0.001 µM) was 22.9% and the viability, T/C (second compound 1 µM, first compound 0.00316 µM) was 19%. The viability, T/C (second compound 1 µM, first compound 0.01 µM) was 22.3%, the viability, T/C [7] was 22.3% and the viability, T/C [8] was 18.7%. The viability, T/C (second compound 3.16 µM, first compound 0.000316 µM) was 7.18%, the viability, T/C (second compound 3.16 µM, first compound 0.001 µM) was 10.9% and the viability, T/C (second compound 3.16 µM, first compound 0.00316 µM) was 8.25%. For the same compound, the viability, T/C (second compound 3.16 µM, first compound 0.01 µM) was 7.82%, the viability, T/C [9] was 7.43% and the viability, T/C [10] was 10.8%. The viability, T/C (second compound 10 µM, first compound 0.000316 µM) was 1.01%, the viability, T/C (second compound 10 µM, first compound 0.001 µM) was 2.31% and the viability, T/C (second compound 10 µM, first compound 0.00316 µM) was 1.8%. The viability, T/C (second compound 10 µM, first compound 0.01 µM) was 0.75%, the viability, T/C [11] was 3.12% and the viability, T/C [12] was 2.33%.

In the case of `O=C(c1cc(Cc2n[nH]c(=O)c3ccccc23)ccc1F)N1CCN(C(=O)C2CC2)CC1` + CN1CCN(c2cc(C(=O)Nc3cc4cc(-c5cnn(C)c5)ccc4cn3)ccn2)CC1, the IC50 (second compound 0.0316 µM) is reported as over 10000 nM, the IC50 (second compound 0.1 µM) is reported as over 10000 nM and the IC50 (second compound 0.316 µM) is reported as over 10000 nM. The IC50 (second compound 1 µM) was under 31.6 nM, the IC50 (second compound 3.16 µM) was under 31.6 nM and the IC50 (second compound 10 µM) was under 31.6 nM. For the same compound, the viability, T/C [1] was 120%, the viability, T/C [2] was 112% and the viability, T/C (second compound 0.0316 µM, first compound 0.316 µM) was 112%. It also gave a viability, T/C (second compound 0.0316 µM, first compound 1 µM) of 125%, a viability, T/C (second compound 0.0316 µM, first compound 3.16 µM) of 102% and a viability, T/C (second compound 0.0316 µM, first compound 10 µM) of 84.1%. For the same compound, the viability, T/C [3] was 122%, the viability, T/C [4] was 105% and the viability, T/C (second compound 0.1 µM, first compound 0.316 µM) was 109%. For the same compound, the viability, T/C (second compound 0.1 µM, first compound 1 µM) was 98.7%, the viability, T/C (second compound 0.1 µM, first compound 3.16 µM) was 95% and the viability, T/C (second compound 0.1 µM, first compound 10 µM) was 88.4%. The viability, T/C [5] was 96.8%, the viability, T/C [6] was 82.2% and the viability, T/C (second compound 0.316 µM, first compound 0.316 µM) was 87.2%. The viability, T/C (second compound 0.316 µM, first compound 1 µM) was 85.5%, the viability, T/C (second compound 0.316 µM, first compound 3.16 µM) was 83.7% and the viability, T/C (second compound 0.316 µM, first compound 10 µM) was 74.8%. The viability, T/C [7] was 26.2%, the viability, T/C [8] was 24.4% and the viability, T/C (second compound 1 µM, first compound 0.316 µM) was 23.4%. It also gave a viability, T/C (second compound 1 µM, first compound 1 µM) of 22.4%, a viability, T/C (second compound 1 µM, first compound 3.16 µM) of 28.3% and a viability, T/C (second compound 1 µM, first compound 10 µM) of 25.2%. It also gave a viability, T/C [9] of 10.1%, a viability, T/C [10] of 11.2% and a viability, T/C (second compound 3.16 µM, first compound 0.316 µM) of 9.98%. It also gave a viability, T/C (second compound 3.16 µM, first compound 1 µM) of 8.62%, a viability, T/C (second compound 3.16 µM, first compound 3.16 µM) of 9.42% and a viability, T/C (second compound 3.16 µM, first compound 10 µM) of 12.3%. The viability, T/C [11] was 1.86%, the viability, T/C [12] was 1.82% and the viability, T/C (second compound 10 µM, first compound 0.316 µM) was 2.14%. It also gave a viability, T/C (second compound 10 µM, first compound 1 µM) of 2.42%, a viability, T/C (second compound 10 µM, first compound 3.16 µM) of 3.13% and a viability, T/C (second compound 10 µM, first compound 10 µM) of 2.42%.
